Laboratory results as given in patent publication US5304367A, “In vivo brain imaging agent and method for diagnosis of psychiatric disorders” (New York University, priority 1990, dated 1994).
Several values for one entry are separate records, joined by “and”; a condition that tells them apart may be missing. Identical values can stand only once. Like-named read-outs stand apart in the source and are kept apart here.

What was measured:
[1] = system: β-adrenergic receptor; test: [^3 H]DHA saturation binding in prefrontal cortical homogenates from suicides and controls (Scatchard analysis); parameters: species or system human
Source text: (§1) Following the characterization and localization of a group effect (such as, for example, age, sex or suicide) by autoradiography, samples from at least one involved region are dissected from the relevant blocks and homogenized for saturation binding studies using well known techniques.
Fourteen suicide and 14 pair-matched control brains were collected over 3 years from the medical examiner's offices in New York City and Jaffa, ISRAEL. […] The results of the coroner's examination as well as the results of broad-spectrum toxicological tests performed by the forensic laboratory were made available within 8 weeks. Only drug-free and pathology-free brains were included. For each suicide brain, a control matched for sex and age group with a PMD under 48 hours was collected the same day or within a few days, so that the pairs are also matched for storage time. The brains from each pair were dissected or sectioned on the same day and receptors were labeled in the same experiment, by an experimenter blind to the identity of the samples.
(§2) The brains were removed at autopsy and the right hemisphere sliced in the coronal plane. The slices, about 2 cm thick, were examined for signs of pathology and frozen in powdered dry ice, then removed for long-term storage at -80° C. Grey matter from the most frontal slice (prefrontal cortex) was dissected with a scalpel and homogenized. Crude membrane preparations were made from the homogenates, divided and stored frozen for saturation binding assays. The other slices were used for autoradiography. Eight concentrations of [^3 H]DHA (New England Nuclear, specific activity: 72 Ci/mmol), ranging from 0.1 to 4 nM were incubated with samples of the membrane preparations, with parallel incubates containing 10^-6 M propranolol to establish non-specific binding (Biegon et al., Life Sci. 32:2015-2022 ;(1983)); Enna et al., J. Neurochem. 28:233-236 (1983)). β-Receptor subtypes were distinguished by coincubation of the radioligand 10^-6 M concentrations of either zinterol, a […] blocker, or […] blocker, in 5 out of the 10 pairs included in this part of the study (Ecker et al., Int. Catecholamine Symp. Abstr. 6:52 (1987)). The affinity (Kd and maximal density (Bmax) of the receptors were derived from Scatchard analysis (Scatchard G., Ann. N.Y. Acad. Sci. 51:660-672 (1949)) of the binding data and protein was assayed by the method of Lowry et al.(Lowry et al., J. Biol. Chem. 193:265-275 (1951)).
The binding characteristics of βARs were studied in prefrontal cortical homogenates from 10 pairs. The region corresponds to Brodmann's areas 9 and 10.

[2] = biological target: T1, β2-receptors (Homo sapiens, UniProt P07550); test: [^3 H]DHA saturation binding in prefrontal cortical homogenates, β2-receptors
T1 construct: Crude membrane preparations were made from the homogenates; from tissue; host or cells: human post-mortem prefrontal cortex (grey matter), crude membranes
T1 sequence (P07550 whole entry, looked up): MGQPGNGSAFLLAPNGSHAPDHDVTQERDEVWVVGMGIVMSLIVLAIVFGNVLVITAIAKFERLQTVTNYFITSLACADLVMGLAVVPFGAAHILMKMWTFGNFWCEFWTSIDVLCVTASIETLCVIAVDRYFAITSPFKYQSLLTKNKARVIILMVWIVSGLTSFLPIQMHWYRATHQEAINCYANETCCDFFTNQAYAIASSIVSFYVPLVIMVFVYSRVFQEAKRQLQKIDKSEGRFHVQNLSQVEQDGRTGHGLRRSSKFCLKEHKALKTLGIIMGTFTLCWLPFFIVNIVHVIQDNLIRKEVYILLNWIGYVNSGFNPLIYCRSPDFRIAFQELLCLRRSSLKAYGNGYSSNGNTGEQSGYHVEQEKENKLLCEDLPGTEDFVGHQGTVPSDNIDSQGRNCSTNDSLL
Source text: as §1, §2

[3] = system: β2 receptor; test: ^3 H-DHA saturation binding on homogenates of frontal superior gyrus, β2; parameters: species or system human; conditions: 3 brains, 0.1 μM zinterol or metoprolol for subtype differentiation
Method: as §1
(§3) Based on 3 brains, a total Bmax of 50-100 fm/mg protein was calculated, with the β1 receptor subtype accounting for the majority of the sites (Bmax: 40-60 fm/mg protein) and a smaller β2 receptor fraction (Bmax: 25-40 fm/mg protein). The Bmax values for the two subtypes added up to total specific binding in each individual brain, confirming the use of the two blocker concentrations for receptor subtype differentiation.

[4] = system: β1 receptor subtype; test: ^3 H-DHA saturation binding on homogenates of frontal superior gyrus, β1; parameters: species or system human; conditions: 3 brains, 0.1 μM zinterol or metoprolol for subtype differentiation
Method: as §1, §3

[5] = biological target: T2, β1-receptors (Homo sapiens, UniProt P08588); test: [^3 H]DHA saturation binding in prefrontal cortical homogenates, β1-receptors
T2 construct: Crude membrane preparations were made from the homogenates; from tissue; host or cells: human post-mortem prefrontal cortex (grey matter), crude membranes
T2 sequence (P08588 whole entry): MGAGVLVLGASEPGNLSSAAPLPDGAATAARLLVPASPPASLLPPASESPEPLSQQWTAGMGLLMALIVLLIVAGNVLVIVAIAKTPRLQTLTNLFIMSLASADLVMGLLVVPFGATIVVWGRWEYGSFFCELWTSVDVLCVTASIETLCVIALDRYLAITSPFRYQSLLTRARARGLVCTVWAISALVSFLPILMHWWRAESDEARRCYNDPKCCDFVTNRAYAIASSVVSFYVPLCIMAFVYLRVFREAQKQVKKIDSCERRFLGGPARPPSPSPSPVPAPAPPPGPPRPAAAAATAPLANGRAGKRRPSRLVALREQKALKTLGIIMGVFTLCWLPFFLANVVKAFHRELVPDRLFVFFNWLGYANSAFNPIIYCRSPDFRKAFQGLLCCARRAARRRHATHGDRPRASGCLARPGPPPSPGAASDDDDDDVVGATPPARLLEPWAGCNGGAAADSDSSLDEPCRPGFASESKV
Source text: as §1, §2

[6] = system: βAR; test: ^3 H-DHA saturation binding on homogenates of frontal superior gyrus, total; parameters: species or system human; conditions: 3 brains
[7] = system: βAR; test: in vivo autoradiography of brain distribution and kinetics; parameters: species or system rat
Method: In vivo autoradiography was been used to study brain distribution and kinetics of iodopindolol. Groups of rats (3 per treatment/time) were injected intravenously (i.v.) in the tail vein with 250 μCi/kg ^125 I-iodopindolol, either alone or 5 min after an intraperitoneal injection of the βAR antagonist (beta blocker) propranolol (5 mg/kg), to define nonspecific binding. Animals were sacrificed by decapitation 15, 30, 60 and 90 minutes post- injection and the brains quickly removed. The right hemisphere and a blood sample were used for direct counting while the left hemisphere was frozen immediately on dry ice and then sectioned sagittally. Sections were apposed to hyperfilm for one week.

[8] = system: β2 receptors; test: autoradiographic mapping of β2 receptors (iodopindolol in the presence of metoprolol); assay type: binding, human; conditions: FIG. 4
Method: (§4) Slides holding tissue sections are incubated for about 70 min at approximately 25° C. with 0.15 nM ^125 I-iodopindolol (New England Nuclear, 2200 Ci/mmole) in 25 mM Tris buffer, pH 7.5, containing 150 mM NaCl. Nonspecific binding is determined in the presence of 1 μM propranolol (see Examples, below). Zinterol, a selective β2 blocker, or metoprolol, a selective β1 antagonist, are added to the incubation buffer at 0.1 μM to achieve selective labeling of the β1 and β2 receptor subtypes, respectively. The incubation is followed by three 20 min washes in the same ice cold buffer. Slides are then dipped in ice cold distilled water to remove buffer salts, dried on a 50° C. slide warmer and apposed to ^3 H-sensitive film (Amersham ^3 H-hyperfilm) for 48-96 hours. The film is coexposed to commercial iodine standards (available from Amersham, for example). Film is developed manually using standard developer and fixer such as those available from the Eastman-Kodak Company. […]
(§5) Based on 3 brains, a total Bmax of 50-100 fm/mg protein was calculated, with the β1 receptor subtype accounting for the majority of the sites (Bmax: 40-60 fm/mg protein) and a smaller β2 receptor fraction (Bmax: 25-40 fm/mg protein). […]

[9] = system: β1 receptors; test: autoradiographic mapping of β1 receptors (iodopindolol in the presence of zinterol); assay type: binding, human; conditions: FIG. 3
Method: as §4, §5

[10] = system: β2; conditions: experimental animals; cited from earlier work
[11] = system: serotonin receptors of the 5HT1B subtype; conditions: unlike most other βAR antagonists; cited from earlier work
[12] = system: β1; conditions: experimental animals; cited from earlier work
[13] = whole body distribution, mice, 2 μCi; assay type: in vivo, mouse; conditions: conclusion from whole body distribution studies
Method: In a subsequent study, whole body distribution was examined in mice following tail vein injection of 2 μCi ^125 I-iodopindolol. Animals were sacrificed at various time points up to 22 hours post-injection. Percent injected dose (%ID) was determined in 11 organs, blood and urine. At one minute, lungs contained the highest %ID (17%), heart 3-4 %ID and brain 0.3%ID.

[14] = experimental animals; cited from earlier work
[15] = biological target: beta adrenergic receptors (βAR); conditions: βAR antagonist; Barovsky et al.; read-out: affinity; cited from earlier work
[16] = system: serotonin receptors of the 5HT1D subtype; conditions: unlike most other βAR antagonists; cited from earlier work

## CCCc1ccccc1OCC(O)CNC(C)C (stereo not drawn) [[^3 H]DHA, dihydroalprenolol]
[1]; control, individual of matched pair, prefrontal cortex
  Bmax: 65 fm/mg P and 92 fm/mg P and 44 fm/mg P and 31 fm/mg P and 86 fm/mg P and 55 fm/mg P and 78 fm/mg P and 36 fm/mg P and 32 fm/mg P and 53 fm/mg P
[1]; control, individual of matched pair, prefrontal cortex, read-out: Kd
  Kd: 0.84 nM and 0.8 nM and 0.3 nM and 0.4 nM and 0.6 nM and 1.25 nM and 1.5 nM
[1]; control, mean of 10, SEM 7.9
  Bmax, mean: 57.7 fm/mg P
[1]; suicide vs control
  change in receptor affinity (Kd): no significant change in receptor affinity
[1]; suicide vs control, 9 of the 10 pairs
  Increases in binding (range): 30% to 115%
[1]; suicide vs control, P<0.0003
  Increases in binding (mean): 48%
[1]; suicide, individual of matched pair, prefrontal cortex
  Bmax: 108 fm/mg P and 81 fm/mg P and 85 fm/mg P and 67 fm/mg P and 119 fm/mg P and 97 fm/mg P and 106 fm/mg P and 58 fm/mg P and 53 fm/mg P and 83 fm/mg P
[1]; suicide, individual of matched pair, prefrontal cortex, read-out: Kd
  Kd: 0.98 nM and 0.9 nM and 1.5 nM and 1.2 nM and 1.4 nM and 1.1 nM and 1 nM and 0.4 nM and 0.8 nM
[1]; suicide, mean of 10, SEM 0.1, read-out: Kd, mean
  Kd: 1 nM
[1]; suicide, mean of 10, SEM 7.8, P < 0.0003
  Bmax, mean: 86.0 fm/mg P
[2]; control
  Bmax, β2-receptors: 28.0±4.0 fm/mg protein
  Kd: 1.1 ± 0.13 nM
[2]; suicide, p=0.1
  Bmax, β2-receptors: 39.2±3.1 fm/mg protein
[3]
  Bmax, β2 receptor: 25-40 fm/mg protein
[4]
  Bmax, β1 receptor subtype: 40-60 fm/mg protein
[5]; control, n=5
  Bmax, β1-receptors: 37.7±9.3 fm/mg protein
  Kd: 2.2 ± 0.5 nM
[5]; suicide, n=5
  Kd: 1.7 ± 0.3 nM
[5]; suicide, n=5, P<0.015
  Bmax, β1-receptors: 50.3±9.4 fm/mg protein
[6]
  total Bmax: 50-100 fm/mg protein

## CC(C)NCC(O)COc1cccc2[nH]cc(I)c12 (stereo not drawn) [iodopindolol]
[7]; 15 and 30 minutes post-injection, 250 μCi/kg i.v., propranolol 5 mg/kg i.p.
  difference between total and nonspecific binding to brains: very small difference
[7]; 60 and 90 minutes, propranolol 5 mg/kg i.p.
  brain binding of radiolabel, propranolol pre-injected: low and uniform brain binding of radiolabel
[7]; 60 and 90 minutes, without propranolol
  distribution of binding in the brain: high levels in frontal cortex, caudate, and cerebellum; moderate to low levels in various hippocampal structures and thalamic nuclei; low levels in brain stem and medulla
[7]; FIG. 5, 15 minutes post injection
  difference between iodopindolol alone and propranolol-pretreated animals: no apparent difference
[7]; FIG. 6, 60 minutes post injection
  distribution of radioactivity: relatively high levels in external cortical layers, caudate and cerebellum and relatively low levels in hippocampus
[7]; between 60 and 90 minutes
  brain levels of bound radiolabel: do not decline appreciably between 60 and 90 minutes
[7]; one hour after injection
  specific labelling of βAR in the brain: specifically labels βAR
[8]
  distribution of β2 receptors: found in internal cortical layers and predominate in hippocampus, cerebellum and white matter
[9]
  distribution of β1 receptors: predominate in the prefrontal cortical external layers and in basal ganglia
[10]
  labelling of βAR subtype β2 in vivo: labels both βAR subtypes, β1 and β2, in vivo
[11]
  affinity for serotonin receptors, 5HT1B: low affinity
[12]
  labelling of βAR subtype β1 in vivo: labels both βAR subtypes, β1 and β2, in vivo
[13]
  brain uptake: hindered by the blood brain barrier
[14]
  crossing of blood brain barrier: crosses the blood brain barrier
[15]
  Kd: < 1 nM
[16]
  affinity for serotonin receptors, 5HT1D: low affinity
